These results are taken from patent publication US7060822B1, “2-pyrazolin-5-ones” (Abbott GmbH & Co. KG, priority 1999, dated 2006).

What is called melting point is the temperature, or range, at which the solid turns liquid. In turn, `Cn1cc(C=C2C(=O)NN=C2CCc2ccc(O)cc2)c2ccccc21` [Example 251, 3-(4-Hydroxyphenylethyl)-4-[(1-methylindol-3-yl)methylene]-2-pyrazolin-5-one] displayed a melting point of 255 to 257 °C. Molecule `COc1ccc(NC2=NNC(=O)C2=Cc2ccc[nH]2)cc1` [Example 16, 3-(4-Methoxyphenylamino)-4-[(pyrrol-2-yl)methylene]-2-pyrazolin-5-one] yielded a melting point of 288 to 290 °C. `O=C1NN=C([C@@H]2C[C@H]2c2ccccc2)C1=Cc1c[nH]c2ccccc12` (relative stereo) [Example 285, 4-[(Indol-3-yl)methylene]-3-(trans-2-phenyl-1-cyclopropyl)-2-pyrazolin-5-one]: the melting point lay in the range of 280 to 282 °C. Then `O=C1NN=C(COc2cccc(Cl)c2)C1=Cc1ccc[nH]1` [Example 19, 3-(3-Chlorophenyloxymethyl)-4-[(pyrrol-2-yl)methylene]-2-pyrazolin-5-one], with 165 to 167 °C; and `O=C1NN=C(Cc2ccccc2)C1=Cc1c[nH]c2ncccc12` [Example 333, 4-[(7-Azaindol-3-yl)methylene]-3-benzyl-2-pyrazolin-5-one], with 274 to 277 °C; and `O=C1NN=C(Cc2ccccc2)C1=Cc1cn(CCCCO)c2ncccc12` [Example 334, 3-Benzyl-4-{[1-(4-hydroxybutyl)-7-azaindol-3-yl]methylene}-2-pyrazolin-5-one], with 176 to 179 °C. To `Nc1ccc(CCC2=NNC(=O)C2=Cc2cc3ccccc3[nH]2)cc1` [Example 308, 3-(4-Aminophenylethyl)-4-[(indol-2-yl)methylene]-2-pyrazolin-5-one] belongs 187 to 189 °C; to `Cc1cc(C)c(C=C2C(=O)NN=C2c2ccco2)[nH]1` [Example 127, 4-[(3,5-dimethylpyrrol-2-yl)methylene]-3-(2-furyl)-2-pyrazolin-5-one], 235 to 237 °C; to `COc1ccc2[nH]c(C=C3C(=O)NN=C3c3ccccn3)cc2c1` [Example 328, 4-[(5-Methoxyindol-2-yl)methylene]-3-(2-pyridyl)-2-pyrazolin-5-one], 170 to 172 °C. On to `CCOC1=NNC(=O)C1=Cc1ccc([N+](=O)[O-])[nH]1` [Example 152, 3-Ethoxy-4-[(5-nitropyrrol-2-yl)methylene]-2-pyrazolin-5-one], for which the melting point was 208 to 210 °C. Then `COc1ccc(CC2=NNC(=O)C2=Cc2ccc[nH]2)cc1` [Example 6, 3-(4-Methoxybenzyl)-4-[(pyrrol-2-yl)methylene]-2-pyrazolin-5-one], with 179 to 180 °C. As to `CCOC(=O)CC1=NNC(=O)C1=Cc1ccc[nH]1` [Example 53, 3-(Ethoxycarbonylmethyl)-4-[(pyrrol-2-yl)methylene]-2-pyrazolin-5-one], the melting point is 124 to 126 °C. Then `CCc1c(C)[nH]c(C=C2C(=O)NN=C2c2cnccn2)c1C` [Example 135, 4-[(3,5-Dimethyl-4-ethylpyrrol-2-yl)methylene]-3-pyrazinyl-2-pyrazolin-5-one], with 264 to 267 °C; and `O=C1NN=C(Nc2ccc(F)cc2)C1=Cc1ccc[nH]1` [Example 33, 3-(4-Fluorophenylamino)-4-[(pyrrol-2-yl)methylene]-2-pyrazolin-5-one], with 272 to 273 °C. To `Cc1[nH]c(C=C2C(=O)NN=C2c2cnccn2)c(C)c1CCNC1CC1` [Example 203, 4-{[4-(2-Cyclopropylaminoethyl)-3,5-dimethylpyrrol-2-yl]methylene}-3-pyrazinyl-2-pyrazolin-5-one] belongs 210 to 218 °C; to `O=C1NN=C(CCc2ccc([N+](=O)[O-])cc2)C1=Cc1c[nH]c2ccccc12` [Example 240, 4-[(Indol-3-yl)methylene]-3-(4-nitrophenylethyl)-2-pyrazolin-5-one], 295 to 297 °C.

With `O=C1NN=C(CCCc2ccccc2)C1=Cc1c[nH]c2ccccc12` [Example 234, 4-[(Indol-3-yl)methylene]-3-(3-phenylpropyl)-2-pyrazolin-5-one], the melting point was 218 to 220 °C. To `CCNCCc1c(C)[nH]c(C=C2C(=O)NN=C2c2cnccn2)c1C` [Example 185, 4-{[3,5-Dimethyl-4-(2-ethylaminoethyl)pyrrol-2-yl]methylene}-3-pyrazinyl-2-pyrazolin-5-one] belongs 192 to 194 °C. In turn, `O=C1NN=C(Cc2ccc(Cl)cc2)C1=Cc1ccc[nH]1` [Example 17, 3-(4-Chlorobenzyl)-4-[(pyrrol-2-yl)methylene]-2-pyrazolin-5-one] came in with a melting point of 178 to 180 °C. With `O=C1NN=C(Nc2ccccc2)C1=Cc1c[nH]c2ccccc12` [Example 220, 4-[(Indol-3-yl)methylene]-3-phenylamino-2-pyrazolin-5-one], the melting point lay within 265 to 267 °C.

`CCOC(=O)c1c(C)[nH]c(C=C2C(=O)NN=C2C(C)Cc2ccccc2)c1C` (stereo not drawn) [Example 150, 4-[(3,5-Dimethyl-4-ethoxycarbonylpyrrol-2-yl)methylene]-3-(1-methyl-2-phenylethyl)-2-pyrazolin-5-one] displayed a melting point of 168 to 170 °C. To `O=C1NN=C(C2CC2)C1=Cc1ncc[nH]1` [Example 365, 3-Cyclopropyl-4-[(imidazol-2-yl)methylene]-2-pyrazolin-5-one] belongs 264 to 266 °C.

The molecule `CCOC1=NNC(=O)C1=Cc1[nH]c2ccccc2c1CN(C)C` [Example 332, 4-[(3-Dimethylaminomethylindol-2-yl)methylene]-3-ethoxy-2-pyrazolin-5-one] came in with a melting point of 185 to 187 °C.

Take `COc1ccc(OCC2=NNC(=O)C2=Cc2c[nH]c3ncccc23)cc1` [Example 335, 4-[(7-Azaindol-3-yl)methylene]-3-(4-methoxyphenyloxymethyl)-2-pyrazolin-5-one]: the melting point lay within 300 to 302 °C.

For `Cc1[nH]c(C=C2C(=O)NN=C2C2CC2)c(C)c1CN1CCOCC1` [Example 97, 3-Cyclopropyl-4-[(3,5-dimethyl-4-morpholinomethylpyrrol-2-yl)methylene]-2-pyrazolin-5-one], the melting point lay in the range of 175 to 177 °C. Then `O=C1NN=C(C2CC2)C1=Cc1c[nH]c2ccccc12` [Example 256, 3-Cyclopropyl-4-[(indol-3-yl)methylene]-2-pyrazolin-5-one], with 300 to 305 °C; and `O=C1NN=C(CCc2ccccc2)C1=Cc1cn(CCCCO)c2ccccc12` [Example 239, 4-{[1-(4-Hydroxybutyl)indol-3-yl]methylene}-3-phenylethyl-2-pyrazolin-5-one], with 205 to 207 °C.

`Cc1c[nH]c(C=C2C(=O)NN=C2C2CC2)c1` [Example 68, 3-Cyclopropyl-4-[(4-methylpyrrol-2-yl)methylene]-2-pyrazolin-5-one] returned a melting point of 212 to 215 °C. The molecule `COc1ccc2c(c1)c(C=C1C(=O)NN=C1OC(C)C)cn2C` [Example 295, 3-Isopropoxy-4-[(5-methoxy-1-methylindol-3-yl)methylene]-2-pyrazolin-5-one] returned a melting point of 238 to 239 °C. To `Cc1[nH]c(C=C2C(=O)NN=C2c2cnccn2)c(C)c1C(=O)CN(C)C.Cl` belongs > 300 °C (dec.); to `CC(=O)c1c(C)[nH]c(C=C2C(=O)NN=C2OC(C)C)c1C` [Example 87, 4-[(4-Acetyl-3,5-dimethylpyrrol-2-yl)methylene]-3-isopropoxy-2-pyrazolin-5-one], 209 to 210 °C. The molecule `O=C1NN=C(Nc2ccccc2)C1=Cc1ccc[nH]1` [Example 13, 3-Phenylamino-4-[(pyrrol-2-yl)methylene]-2-pyrazolin-5-one] yielded a melting point of 285 to 287 °C.

Consider `Cc1c[nH]c(C=C2C(=O)NN=C2Cc2ccccc2)c1CCC(=O)O` [Example 8, 3-Benzyl-4-{[3-(2-carboxyethyl)-4-methylpyrrol-2-yl]methylene}-2-pyrazolin-5-one], for which the melting point lay within 226 to 228 °C. Turning to `Cn1cc(C=C2C(=O)NN=C2C2CC2)c2ccc(C(=O)O)cc21` [Example 287, 4-[(6-Carboxy-1-methylindol-3-yl)methylene]-3-cyclopropyl-2-pyrazolin-5-one], the melting point was 237 to 240 °C (dec.). For the molecule `O=C1NN=C(C2CC2)C1=Cc1cc(Br)c[nH]1` [Example 115, 4-[(4-Bromopyrrol-2-yl)methylene]-3-cyclopropyl-2-pyrazolin-5-one], the melting point is 210 °C (dec.).

In the case of `CC1CC1C1=NNC(=O)C1=Cc1c[nH]c2ccccc12` (stereo not drawn) [Example 265, 4-[(Indol-3-yl)methylene]-3-(2-methylcyclopropyl)-2-pyrazolin-5-one], the melting point was in the range of 294 to 296 °C.

As for `CC(C)OC1=NNC(=O)C1=Cc1cn(CCCCO)c2ccccc12` [Example 238, 4-{[1-(4-Hydroxybutyl)indol-3-yl]methylene}-3-isopropoxy-2-pyrazolin-5-one], the melting point lay within 210 to 212 °C. To `CCOC1=NNC(=O)C1=Cc1[nH]c(C)c(C(=O)O)c1C` [Example 151, 4-[(4-Carboxy-3,5-dimethylpyrrol-2-yl)methylene]-3-ethoxy-2-pyrazolin-5-one] belongs 310 to 312 °C; to `CC1CC1C1=NNC(=O)C1=Cc1ccc[nH]1` (stereo not drawn) [Example 63, 3-(2-Methylcyclopropyl)-4-[(pyrrol-2-yl)methylene]-2-pyrazolin-5-one], 132 to 133 °C; to `Cc1[nH]c(C=C2C(=O)NN=C2C2CC2)c(C)c1C(=O)OCCN(C)C` [Example 119, 3-Cyclopropyl-4-{[3,5-dimethyl-4-(2-dimethylaminoethyloxycarbonyl)pyrrol-2-yl]methylene}-2-pyrazolin-5-one], 172 to 174 °C. Regarding `O=C1NN=C(CCc2ccc(Cl)cc2)C1=Cc1c[nH]c2ccccc12` [Example 300, 3-(4-Chlorophenylethyl)-4-[(indol-3-yl)methylene]-2-pyrazolin-5-one], the melting point is 271 to 272 °C. To `COC(=O)CCC1=NNC(=O)C1=Cc1c[nH]c2ccccc12` [Example 284, 4-[(Indol-3-yl)methylene]-3-(2-methoxycarbonylethyl)-2-pyrazolin-5-one] belongs 267 to 269 °C.
